One experiment concerns the target T1, human M4 receptor (Homo sapiens, UniProt P08173).
T1 construct: expressed in transfected cells; host or cells: CHO cells
T1 sequence (P08173 1-479): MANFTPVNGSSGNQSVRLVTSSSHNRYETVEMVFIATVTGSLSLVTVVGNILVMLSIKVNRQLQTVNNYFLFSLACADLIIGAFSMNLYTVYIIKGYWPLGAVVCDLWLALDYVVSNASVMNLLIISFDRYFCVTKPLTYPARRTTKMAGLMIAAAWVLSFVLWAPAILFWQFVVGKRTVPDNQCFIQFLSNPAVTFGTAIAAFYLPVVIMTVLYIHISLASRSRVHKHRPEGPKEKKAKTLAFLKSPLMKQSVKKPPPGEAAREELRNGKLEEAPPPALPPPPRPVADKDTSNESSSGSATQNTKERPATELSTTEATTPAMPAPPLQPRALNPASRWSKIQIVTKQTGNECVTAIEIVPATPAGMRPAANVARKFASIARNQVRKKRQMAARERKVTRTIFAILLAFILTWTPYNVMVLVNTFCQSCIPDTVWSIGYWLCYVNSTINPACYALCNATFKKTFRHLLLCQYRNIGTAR
Nature of the experiment: Radioligand ([3H]N-methylscopolamine) binding assay, membranes from CHO cells expressing human M4 receptor. The following applies: Ki against human M4 receptor; membranes from CHO cells; tritiated N-methylscopolamine 1.5 nM; read-out: K. The essentials: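 Competition binding used CHO-cell membranes expressing human M4 with 1.5 nM [3H]N-methylscopolamine and twelve compound concentrations ([…]). Incubation was 90 minutes at 37 °C in 50 mM HEPES, 100 mM NaCl, 5 mM MgCl2, 1 mM EDTA, pH 7.4. Bound ligand was collected by filtration onto PEI-treated glass fibre for Ki.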

The target in experiment [1] is T2, Human muscarinic 4 receptor (CHRM4) (Homo sapiens, UniProt P08173).
T2 construct: host or cells: CHO-K1
T2 sequence (P08173 1-479): T1 sequence (P08173 1-479)
Nature of the experiment: Fluorescence-based functional calcium assay, antagonism of acetylcholine response in CHO-K1 cells with Gα16. The class given is cell-based. Particulars: inhibition of the acetylcholine response. The method, then:
Functional antagonism of acetylcholine responses was evaluated using a fluorescence-based functional calcium assay. Acetylcholine binding to the muscarinic receptors activates G-proteins. Human muscarinic 4 receptor (CHRM4) was stably expressed in CHO-K1 cells and a promiscuous Gα16 construct is co-transfected. This cell line was commercially available through PerkinElmer (product number ES-213-A). Following ligand binding, activation of the Ga16 subunit induces the release of calcium from the endoplasmic reticulum. Prior to ligand screening, the receptor-expressing cells were loaded with a fluorescent calcium indicator, FLIPR Calcium 6 (Molecular Devices). Antagonist activity of the compounds was determined as the EC50 for inhibition of the acetylcholine response. The assay buffer used was a 1:1 solution of buffer (1× Hank's balanced salt solution plus 20 mM HEPES buffer, pH 7.4) and cell medium (Ham's F-12, 10% FBS, 0.4 mg/mL Geneticin, 0.25 mg/mL Zeocin). The day before the assay, 4×10^3 cells per well were seeded into an assay plate in 25 μL of medium and allowed to incubate overnight at 37° C. and 5% CO2. The following day, 25 μL of Calcium 6 dye was added to each well and incubated for two additional hours at 37° C. and 5% CO2. The test compound (a dose-response of eleven concentrations ranging from […]) was added to the cells to a final DMSO concentration of 0.56% v/v. One hour later, acetylcholine to a final concentration of 100 nM was added by the instrument and calcium flux-dependent fluorescence measured in real time. The concentration of acetylcholine used was that which stimulates 80% of the maximal response.

In general, IC50 refers to the point on the concentration scale where inhibition reaches its midpoint. `C[C@@H]1CN(c2cnc(C(F)(F)F)cn2)[C@@H](C)CN1C(=O)OC1CC2(C1)CN(Cc1ccccc1)C2` [Compound 106, 2-benzyl-2-azaspiro[3.3]heptan-6-yl (2R,5S)-2,5-dimethyl-4-[5-(trifluoromethyl)pyrazin-2-yl]piperazine-1-carboxylate]: the Ki on human M4 receptor is 10 to 100 nM. For the same compound, in experiment [1], the IC50 was less than 10 nM.

As to `C[C@@H]1CN(c2ncc(C(F)(F)F)cn2)C[C@H](C)N1C(=O)NC1CC2(C1)CN(Cc1ccccc1)C2` [Compound 96, (2R,6S)—N-{2-Benzyl-2-azaspiro[3.3]heptan-6-yl}-2,6-dimethyl-4-[5-(trifluoromethyl)pyrimidin-2-yl]piperazine-1-carboxamide], the Ki on human M4 receptor was less than 10 nM. The IC50 in experiment [1] was less than 10 nM.

Take `C[C@@H]1CN(c2cnc(C(F)(F)F)cn2)C[C@H](C)N1C(=O)OC1CC2(C1)CN(Cc1ccccc1)C2` [Compound 141, 2-benzyl-2-azaspiro[3.3]heptan-6-yl (2R,6S)-2,6-dimethyl-4-[5-(trifluoromethyl)pyrazin-2-yl]piperazine-1-carboxylate]: the Ki on human M4 receptor lay in the range of 10 to 100 nM. The IC50 in experiment [1] was less than 10 nM.

For the compound `C[C@@H]1CN(c2ncc(C(F)(F)F)cn2)C[C@H](C)N1C(=O)OC1CC2(C1)CN(Cc1ccccc1)C2` [Compound 147, 2-Benzyl-2-azaspiro[3.3]heptan-6-yl (2R,6S)-2,6-dimethyl-4-[5-(trifluoromethyl)pyrimidin-2-yl]piperazine-1-carboxylate], the Ki on human M4 receptor is less than 10 nM. In addition, in experiment [1], the IC50 was less than 10 nM.
